One assay deals with Escherichia coli. Briefly: Antibacterial activity against Escherichia coli at 1000 ug/disk. It is filed as functional.
A further assay concerns Bacillus subtilis. Briefly: Antibacterial activity against Bacillus subtilis at 1000 ug/disk. It is filed as functional. Particulars: read-out: IZ.
The subject of another assay is Staphylococcus aureus. Nature of the assay: Antibacterial activity against Staphylococcus aureus at 1000 ug/disc. It is filed as functional.
A further assay deals with Salmonella typhimurium. Briefly: Antibacterial activity against Salmonella enterica subsp. enterica serovar Typhimurium at 1000 ug/disc. It is filed as functional, organism-based.

Active and inactive are the calls of the source. The rule behind the calls is not given here.

`O=C(/C=C/c1coc2ccccc2c1=O)c1c(O)c2ccccc2oc1=O`: the “inhibition zone (IZ)” value in the assay on Escherichia coli, with Staphylococcus aureus and in the assay on Salmonella typhimurium was “inactive” throughout. The zone of inhibition at 1000 µg/disc with Bacillus subtilis worked out at 12 mm.

In the case of `O=c1oc2ccccc2c(O)c1C1=NNC(c2cn[nH]c2-c2ccccc2O)C1` (configuration not stated), the zone of inhibition at 1000 µg/disc came to 12 mm in the assay with Escherichia coli (read-out: IZ), 25 mm in the assay on Bacillus subtilis and 20 mm in the assay with Staphylococcus aureus (read-out: IZ). The “inhibition zone (IZ)” value with Salmonella typhimurium was “inactive”.

`O=c1oc2ccccc2c(O)c1C1=NN(c2ccccc2)C(c2cnn(-c3ccccc3)c2-c2ccccc2O)C1` (configuration not stated): the “inhibition zone (IZ)” value in the assay with Escherichia coli, in the assay with Staphylococcus aureus and with Salmonella typhimurium was “inactive” each time. In addition, the zone of inhibition at 1000 µg/disc with Bacillus subtilis stood at 10 mm.

These data come from ChEMBL document CHEMBL3045283, “Synthesis and biological activity of heterocycles from chalcone” (2008).
